Legend:
[1] = target: T1, Human HDAC5 (Homo sapiens, UniProt Q9UQL6); assay: HDAC5 biochemical assay, class IIa-specific substrate; conditions: read-out: HDAC Isoform IC50 (nM) 5
T1 construct: full length with C-terminal His tag, MW=51.1 kDa; His (C); host or cells: baculovirus expression system
Experimental: (§1) Activity against all zinc-dependent HDACs 1 to 11 was assessed by using an acetylated AMC-labeled peptide substrate. The substrate RHKK(Ac)AMC was used for HDAC1, HDAC2, HDAC3, HDAC6 and HDAC10; the substrate used for HDAC8 was RHK(Ac)K(Ac)AMC. Activity against the class IIa HDACs (HDAC4, 5, 7, 9) and HDAC11 was determined using a class IIa-specific substrate, BOC-Lys(trifluoroacetyl)-AMC (“Trifluoroacetyl Lysine”; see Lahm et al, 2007, PNAS, 104, 17335-17340). All assays were based on the AMC-labeled substrate and developer combination.
(§2) The protocol involved a two-step reaction: first, the substrate with the acetylated lysine side chain is incubated with a sample containing HDAC activity, to produce the deacetylated products, which are then digested in the second step by the addition of developer to produce the fluorescent signal proportional to the amount of deacetylated substrates.
Human HDAC5 (GenBank Accession No. NM_005474), full length with C-terminal His tag, MW=51.1 kDa, expressed in baculovirus expression system.
(§3) Assay Buffer: 50 mM Tris-HCl, pH8.0, 137 mM NaCl, 2.7 mM KCl, 1 mM MgC2. Before use, 1 mg/mL BSA and DMSO are added.
(§4) For class IIa HDACs, assay buffer is the same.
HDAC5: 0.05 ng/ul HDAC5 and 50 μM Class IIa HDAC substrate are in the reaction buffer with 1% DMSO final. Incubate for 30 minutes at room temperature.
(§5) Stage 1: Deacetylation of substrate by incubation of HDAC enzymes with compounds
(§6) Stage 2: Development by addition of Developer to digest the deacetylated substrate, and generate the fluorescent colour; Detection: 360/460 Ex/Em

[2] = target: T2, Human HDAC9 (Homo sapiens, UniProt Q9UKV0); assay: HDAC9 biochemical assay, class IIa-specific substrate; conditions: read-out: HDAC Isoform IC50 (nM) 9
T2 construct: amino acids 604-1066 with C-terminal His tag; His (C); host or cells: baculovirus expression system
Experimental: as §1, §2
Human HDAC9 (GenBank Accession No. NM_178423), amino acids 604-1066 with C-terminal His tag, MW=50.7 kDa, expressed in baculovirus expression system.
as §3, §4
HDAC9: 0.06 ng/ul HDAC9 and 50 μM Class IIa HDAC substrate are in the reaction buffer with 1% DMSO final. Incubate for 30 minutes at room temperature.
as §5, §6

[3] = target: T3, Human HDAC7 (Homo sapiens, UniProt Q8WUI4); assay: HDAC7 biochemical assay, class IIa-specific substrate; conditions: read-out: HDAC Isoform IC50 (nM) 7
T3 construct: (a.a. 518-end) with N-terminal GST tag; GST (N); host or cells: baculovirus expression system
T3 sequence (Q8WUI4 518-952 limits assumed): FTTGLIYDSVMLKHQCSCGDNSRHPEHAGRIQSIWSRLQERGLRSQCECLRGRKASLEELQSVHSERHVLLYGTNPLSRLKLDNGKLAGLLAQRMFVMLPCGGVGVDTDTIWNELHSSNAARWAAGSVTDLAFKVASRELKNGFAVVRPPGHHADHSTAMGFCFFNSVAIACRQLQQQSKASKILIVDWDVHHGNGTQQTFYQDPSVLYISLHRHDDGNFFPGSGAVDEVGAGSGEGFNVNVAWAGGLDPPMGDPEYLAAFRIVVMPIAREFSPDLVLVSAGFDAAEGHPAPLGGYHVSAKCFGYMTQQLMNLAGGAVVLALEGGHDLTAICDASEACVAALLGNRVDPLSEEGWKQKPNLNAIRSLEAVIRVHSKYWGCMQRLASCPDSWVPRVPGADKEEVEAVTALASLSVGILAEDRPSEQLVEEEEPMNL
Experimental: as §1, §2
Human HDAC7 (GenBank Accession No. AY302468), (a.a. 518-end) with N-terminal GST tag, MW=78 kDa, expressed in baculovirus expression system.
as §3, §4
HDAC7: 0.001 ng/ul HDAC7 and 50 μM Class IIa HDAC substrate are in the reaction buffer with 1% DMSO final. Incubate for 30 minutes at room temperature.
as §5, §6

[4] = target: T4, Human HDAC1 (Homo sapiens, UniProt Q13547); assay: HDAC1 biochemical assay, AMC-labeled peptide substrate; conditions: read-out: HDAC Isoform IC50 (nM) 1
T4 construct: full length with C-terminal His-tag and C-terminal FLAG-tag; His (C); FLAG (C); host or cells: baculovirus expression system
Experimental: as §1, §2
Human HDAC1 (GenBank Accession No. NM_004964), full length with C-terminal His-tag and C-terminal FLAG-tag, MW=56 kDa, expressed in baculovirus expression system.
as §3
HDAC1: 0.3 ng/ul HDAC1 and 50 μM HDAC substrate are in the reaction buffer with 1% DMSO final. Incubate for 1 hour at 30° C.
as §5, §6

[5] = target: T5, Human HDAC4 (Homo sapiens, UniProt P56524); assay: HDAC4 biochemical assay, class IIa-specific substrate; conditions: read-out: HDAC Isoform IC50 (nM) 4
T5 construct: amino acids 627-1085 with N-terminal GST tag; GST (N); host or cells: baculovirus expression system
Experimental: as §1, §2
Human HDAC4 (GenBank Accession No. NM_006037), amino acids 627-1085 with N-terminal GST tag, MW=75.2 kDa, expressed in baculovirus expression system.
as §3, §4
HDAC4: 0.004 ng/ul HDAC4 and 50 μM Class IIa HDAC substrate are in the reaction buffer with 1% DMSO final. Incubate for 30 minutes at room temperature.
as §5, §6

[6] = target: T6, Recombinant human HDAC6 (Homo sapiens, UniProt Q9UBN7); assay: HDAC6 biochemical assay, AMC-labeled peptide substrate; conditions: HDAC6; read-out: HDAC Isoform IC50 (nM) 6
T6 construct: full length, MW=159 kDa; GST (N); host or cells: Sf9 insect cells (baculovirus)
T6 sequence (Q9UBN7 1-1215): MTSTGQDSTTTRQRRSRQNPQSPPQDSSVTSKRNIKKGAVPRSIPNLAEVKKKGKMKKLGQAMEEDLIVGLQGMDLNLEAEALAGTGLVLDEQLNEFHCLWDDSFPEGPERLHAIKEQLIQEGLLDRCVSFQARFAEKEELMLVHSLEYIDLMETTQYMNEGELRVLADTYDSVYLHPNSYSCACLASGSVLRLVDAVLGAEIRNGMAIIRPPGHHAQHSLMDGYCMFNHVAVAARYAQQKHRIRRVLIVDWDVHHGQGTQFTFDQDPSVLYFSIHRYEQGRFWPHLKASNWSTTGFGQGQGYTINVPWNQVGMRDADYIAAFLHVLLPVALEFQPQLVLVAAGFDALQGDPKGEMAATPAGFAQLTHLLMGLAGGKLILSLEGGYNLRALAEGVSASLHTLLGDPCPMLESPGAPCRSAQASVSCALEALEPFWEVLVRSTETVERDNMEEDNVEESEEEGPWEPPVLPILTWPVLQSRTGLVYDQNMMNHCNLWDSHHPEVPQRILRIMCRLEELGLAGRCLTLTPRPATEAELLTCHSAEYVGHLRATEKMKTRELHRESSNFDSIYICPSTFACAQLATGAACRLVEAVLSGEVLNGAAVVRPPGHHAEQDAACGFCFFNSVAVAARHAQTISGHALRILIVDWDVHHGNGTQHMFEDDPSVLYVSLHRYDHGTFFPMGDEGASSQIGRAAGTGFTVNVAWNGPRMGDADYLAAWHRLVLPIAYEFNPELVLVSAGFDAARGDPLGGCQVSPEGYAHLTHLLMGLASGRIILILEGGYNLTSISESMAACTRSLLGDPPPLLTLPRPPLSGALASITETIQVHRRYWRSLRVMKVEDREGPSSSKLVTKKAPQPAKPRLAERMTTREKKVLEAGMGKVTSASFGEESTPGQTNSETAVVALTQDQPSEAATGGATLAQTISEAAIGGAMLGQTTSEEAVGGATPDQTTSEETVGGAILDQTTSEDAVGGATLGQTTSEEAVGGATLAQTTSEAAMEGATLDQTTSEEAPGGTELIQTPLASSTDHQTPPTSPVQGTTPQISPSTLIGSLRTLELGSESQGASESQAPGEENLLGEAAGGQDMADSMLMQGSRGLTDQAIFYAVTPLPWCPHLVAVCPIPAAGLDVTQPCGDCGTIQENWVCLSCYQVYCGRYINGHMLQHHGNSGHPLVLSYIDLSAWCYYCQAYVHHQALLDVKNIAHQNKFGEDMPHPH
Experimental: as §1, §2
Recombinant human HDAC6 (GenBank Accession No. BC069243), full length, MW=159 kDa, was expressed by baculovirus in Sf9 insect cells using an N-terminal GST tag.
as §3
HDAC6: 0.3 ng/ul HDAC6 and 50 μM HDAC substrate are in the reaction buffer with 1% DMSO final. Incubate for 1 hours at 30° C.
as §5, §6

T2 sequence (Q9UKV0 604-1066 isoform Q9UKV0-5): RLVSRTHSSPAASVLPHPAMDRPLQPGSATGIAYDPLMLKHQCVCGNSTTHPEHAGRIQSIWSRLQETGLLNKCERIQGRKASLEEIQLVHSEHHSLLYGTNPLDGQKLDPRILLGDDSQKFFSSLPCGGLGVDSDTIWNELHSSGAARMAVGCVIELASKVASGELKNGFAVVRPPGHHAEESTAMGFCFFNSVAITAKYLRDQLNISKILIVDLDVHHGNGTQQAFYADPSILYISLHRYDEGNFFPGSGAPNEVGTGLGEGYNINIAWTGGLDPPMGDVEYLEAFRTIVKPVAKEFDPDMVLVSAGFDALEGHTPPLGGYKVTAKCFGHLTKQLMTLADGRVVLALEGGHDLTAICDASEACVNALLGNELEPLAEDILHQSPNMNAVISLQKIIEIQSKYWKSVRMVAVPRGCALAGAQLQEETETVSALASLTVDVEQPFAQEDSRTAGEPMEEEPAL
T5 sequence (P56524 627-1084 limits assumed): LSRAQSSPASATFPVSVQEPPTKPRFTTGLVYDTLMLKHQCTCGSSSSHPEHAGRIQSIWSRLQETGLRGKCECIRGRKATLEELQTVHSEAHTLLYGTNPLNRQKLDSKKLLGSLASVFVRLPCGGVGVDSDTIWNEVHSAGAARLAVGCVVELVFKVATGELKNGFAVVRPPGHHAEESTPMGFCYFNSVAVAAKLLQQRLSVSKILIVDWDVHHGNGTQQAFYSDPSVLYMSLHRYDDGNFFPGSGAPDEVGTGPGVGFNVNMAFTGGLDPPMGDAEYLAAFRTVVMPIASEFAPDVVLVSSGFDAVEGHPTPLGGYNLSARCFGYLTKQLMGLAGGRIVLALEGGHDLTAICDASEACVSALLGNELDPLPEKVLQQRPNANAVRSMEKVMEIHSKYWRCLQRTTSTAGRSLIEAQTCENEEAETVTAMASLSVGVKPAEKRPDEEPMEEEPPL
T1 sequence (Q9UQL6 656-1122 limits assumed): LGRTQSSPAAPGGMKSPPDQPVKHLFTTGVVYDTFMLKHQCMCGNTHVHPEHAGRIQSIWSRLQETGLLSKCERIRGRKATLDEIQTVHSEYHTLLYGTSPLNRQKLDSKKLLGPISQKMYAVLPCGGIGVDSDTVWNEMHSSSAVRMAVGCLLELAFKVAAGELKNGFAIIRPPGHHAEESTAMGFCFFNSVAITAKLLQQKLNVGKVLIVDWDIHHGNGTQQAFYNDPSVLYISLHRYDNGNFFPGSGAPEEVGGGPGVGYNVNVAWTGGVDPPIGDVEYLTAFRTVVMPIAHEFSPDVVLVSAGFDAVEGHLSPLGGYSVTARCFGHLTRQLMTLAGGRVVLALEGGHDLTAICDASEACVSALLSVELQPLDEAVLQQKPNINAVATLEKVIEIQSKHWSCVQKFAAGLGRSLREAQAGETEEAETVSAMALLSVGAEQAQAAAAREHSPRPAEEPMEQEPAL
T4 sequence (Q13547 whole entry, canonical isoform): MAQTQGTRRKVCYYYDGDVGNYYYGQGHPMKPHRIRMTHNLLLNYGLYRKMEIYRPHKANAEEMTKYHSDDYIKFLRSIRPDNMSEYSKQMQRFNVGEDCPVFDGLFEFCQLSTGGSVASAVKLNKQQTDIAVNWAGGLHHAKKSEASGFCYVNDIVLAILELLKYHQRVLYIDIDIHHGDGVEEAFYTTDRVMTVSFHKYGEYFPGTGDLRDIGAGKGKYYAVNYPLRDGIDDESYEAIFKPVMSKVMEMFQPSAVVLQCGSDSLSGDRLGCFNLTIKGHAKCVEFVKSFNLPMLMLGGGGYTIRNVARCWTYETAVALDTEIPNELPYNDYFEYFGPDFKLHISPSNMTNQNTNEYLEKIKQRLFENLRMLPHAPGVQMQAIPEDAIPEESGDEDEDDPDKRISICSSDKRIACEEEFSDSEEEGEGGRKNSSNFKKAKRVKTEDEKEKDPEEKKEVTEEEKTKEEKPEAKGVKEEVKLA

Row | Compound | IC50 [1] | IC50 [2] | IC50 [3] | IC50 [4] | IC50 [5] | IC50 [6]
1 | FC(F)(F)c1nc(-c2ccc(CN(c3cnccn3)c3ncccc3C3CC3)s2)no1 [Example AM, N-(3-Cyclopropylpyridin-2-yl)-N-({5-[5-(trifluoromethyl)-1,2,4-oxadiazol-3-yl]thiophen-2-yl}methyl)pyrazin-2-amine] | ≤ 500 nM | ≤ 10000 nM | ≤ 1000 nM | > 10000 nM | ≤ 500 nM | ≤ 10000 nM
2 | FC(F)(F)c1nc(-c2ccc(CN(c3cnccn3)c3ccc(N4CCOCC4)nn3)s2)no1 [Example DJ, 6-(Morpholin-4-yl)-N-(pyrazin-2-yl)-N-({5-[5-(trifluoromethyl)-1,2,4-oxadiazol-3-yl]thiophen-2-yl}methyl)pyridazin-3-amine] | ≤ 1000 nM | ≤ 10000 nM | ≤ 10000 nM | > 10000 nM | ≤ 10000 nM | ≤ 500 nM
3 | FC(F)(F)c1cc(N(Cc2ccc(-c3noc(C(F)(F)F)n3)s2)c2cnccn2)ncn1 [Example CJ, N-(Pyrazin-2-yl)-6-(trifluoromethyl)-N-({5-[5-(trifluoromethyl)-1,2,4-oxadiazol-3-yl]thiophen-2-yl}methyl)pyrimidin-4-amine] | ≤ 10000 nM | ≤ 10000 nM | ≤ 10000 nM | > 10000 nM | ≤ 10000 nM | ≤ 10000 nM
4 | FC(F)(F)c1nc(-c2ccc(CN(c3cnccn3)c3cccnn3)s2)no1 [Example DD, N-(Pyrazin-2-yl)-N-({5-[5-(trifluoromethyl)-1,2,4-oxadiazol-3-yl]thiophen-2-yl}methyl)pyridazin-3-amine] | ≤ 10000 nM | ≤ 10000 nM | ≤ 10000 nM | > 10000 nM | ≤ 1000 nM | ≤ 10000 nM
5 | Cn1cc(-c2ccc(N(Cc3ccc(-c4noc(C(F)(F)F)n4)s3)c3cnccn3)nn2)cn1 [Example DO, 6-(1-Methyl-1H-pyrazol-4-yl)-N-(pyrazin-2-yl)-N-({5-[5-(trifluoromethyl)-1,2,4-oxadiazol-3-yl]thiophen-2-yl}methyl)pyridazin-3-amine] | ≤ 1000 nM | ≤ 10000 nM | ≤ 1000 nM | ≤ 10000 nM | ≤ 1000 nM | ≤ 500 nM

— patent publication US20210038607A1, “OXADIAZOLYLTHIOPHENE DERIVATIVES USEFUL AS HISTONE DEACETYLASE INHIBITORS” (Karus Therapeutics Limited, priority 2018, published 2021)
